# Experimental data from patent US10906896B2, “Compositions and methods for inhibiting kinases” (Inhibikase Therapeutics, Inc., priority 2015, dated 2021).
# Assays:
# [1] = system: untransduced Ba/F3 cells grown in the presence of IL-3; test: Ba/F3 proliferation, parental cells (Cell Titer Glo); type: cell-based; details: 48 hrs, with IL-3
# Protocol: (§1) IL-3 was subsequently withdrawn from these populations.
# (§2) Final concentrations of each compound were 10 μM, 1 μM, 100 nM, 10 nM, 1 nM, 0.1 nM, 0 nM (plus a blank-media only).
# [2] = system: Ba/F3 cells harboring BCR-ABL T315I; test: Ba/F3 proliferation, BCR-ABL T315I; type: cell-based; details: 48 hrs, IL-3 withdrawn
# Protocol: as §1, §2
# [3] = system: Ba/F3 cells harboring BCR-ABL Y253H; test: Ba/F3 proliferation, BCR-ABL Y253H; type: cell-based; details: 48 hrs, IL-3 withdrawn
# Protocol: as §1, §2
# [4] = system: Ba/F3 cells harboring BCR-ABL E255K; test: Ba/F3 proliferation, BCR-ABL E255K; type: cell-based; details: 48 hrs, IL-3 withdrawn
# [5] = system: Ba/F3 cells harboring BCR-ABL E255V; test: Ba/F3 proliferation, BCR-ABL E255V; type: cell-based; details: 48 hrs, IL-3 withdrawn
# Protocol: as §1, §2
# [6] = system: Ba/F3 cells harboring BCR-ABL F359V; test: Ba/F3 proliferation, BCR-ABL F359V; type: cell-based; details: 48 hrs, IL-3 withdrawn
# [7] = system: JCV laboratory strain MAD-1; test: JCV antiviral potency in Cos 7 cells; type: cell-based, JC polyomavirus (JCV)
# [8] = target: c-Abl1 (Homo sapiens (Human), UniProt P00519); test: c-Abl1 IC50 (FAM-labeled peptide kinase assay); type: biochemical
# [9] = system: BCR-ABL; details: cited from earlier work
# Sequence of c-Abl1 (P00519 whole entry): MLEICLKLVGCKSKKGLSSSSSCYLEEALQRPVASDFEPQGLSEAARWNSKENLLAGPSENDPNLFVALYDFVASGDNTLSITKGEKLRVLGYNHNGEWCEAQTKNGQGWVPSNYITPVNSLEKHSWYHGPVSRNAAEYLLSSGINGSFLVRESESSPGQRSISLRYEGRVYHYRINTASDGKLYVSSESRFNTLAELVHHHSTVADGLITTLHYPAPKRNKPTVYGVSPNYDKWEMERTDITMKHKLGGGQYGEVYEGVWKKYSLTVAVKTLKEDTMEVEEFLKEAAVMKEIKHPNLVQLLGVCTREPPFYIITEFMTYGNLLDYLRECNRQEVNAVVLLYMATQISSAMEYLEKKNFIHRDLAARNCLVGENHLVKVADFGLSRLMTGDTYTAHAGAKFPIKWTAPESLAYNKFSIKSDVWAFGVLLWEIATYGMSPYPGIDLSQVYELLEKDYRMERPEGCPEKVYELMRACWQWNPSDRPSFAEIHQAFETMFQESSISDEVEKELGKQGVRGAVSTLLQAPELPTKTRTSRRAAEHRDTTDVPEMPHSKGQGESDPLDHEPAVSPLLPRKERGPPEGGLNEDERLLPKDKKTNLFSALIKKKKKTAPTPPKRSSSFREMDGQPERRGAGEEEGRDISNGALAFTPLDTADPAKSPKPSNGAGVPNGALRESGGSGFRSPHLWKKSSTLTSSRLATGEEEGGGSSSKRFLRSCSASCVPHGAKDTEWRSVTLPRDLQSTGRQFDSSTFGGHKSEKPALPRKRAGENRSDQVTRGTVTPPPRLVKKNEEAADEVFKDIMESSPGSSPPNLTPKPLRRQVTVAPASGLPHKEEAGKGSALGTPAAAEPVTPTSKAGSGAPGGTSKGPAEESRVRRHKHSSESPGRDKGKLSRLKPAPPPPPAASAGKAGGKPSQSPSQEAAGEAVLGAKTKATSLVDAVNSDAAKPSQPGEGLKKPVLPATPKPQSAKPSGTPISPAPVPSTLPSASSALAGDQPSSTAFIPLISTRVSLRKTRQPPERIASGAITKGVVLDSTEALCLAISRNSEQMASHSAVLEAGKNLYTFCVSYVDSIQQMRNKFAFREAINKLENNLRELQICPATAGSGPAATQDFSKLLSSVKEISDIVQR
IC50 [2] [nM],IC50 [3] [nM],IC50 [4] [nM],IC50 [5] [nM],IC50 [6] [nM],IC50 [8] [nM],SMILES,IC50 [1] [nM],antiviral activity against JCV [7],potency as an inhibitor of BCR-ABL relative to Gleevec [9] [×]
2910,2590,196,1200,135,,Cc1cc(NC(=O)C2=NN=C(c3cncc(-c4ccnc(Nc5cc(NC(=O)c6ccc(CN7CCN(C)CC7)cc6)ccc5C)n4)c3)C2)ccn1 [Compound 103],2920,,
2120,1430,46.9,739,161,,Cc1cc(NC(=O)C2=NN=C(c3cncc(-c4ccnc(Nc5cc(NC(=O)c6ccc(CN7CCN(C)CC7)cc6)ccc5C)n4)c3)C2)[nH]n1 [Compound 113],2060,,
2300,,204,2670,260,,Cc1ccc(-c2cncc(-c3ccnc(Nc4cc(NC(=O)c5ccc(CN6CCN(C)CC6)cc5)ccc4C)n3)c2)nc1 [Compound 820],2480,,
2680,,390,997,236,,Cc1cc(-c2cncc(-c3ccnc(Nc4cc(NC(=O)c5ccc(CN6CCN(C)CC6)cc5)ccc4C)n3)c2)sn1 [Compound 8190],2240,,
,,,,,> 1000,Cc1ccc(NC(=O)c2ccc(CN3CCN(C)CC3)cc2)cc1Nc1nccc(-c2cncc(-c3snnc3C)c2)n1 [Compound 8240],,,
2770,,234,2390,251,,Cc1cnc(-c2cncc(-c3ccnc(Nc4cc(NC(=O)c5ccc(CN6CCN(C)CC6)cc5)ccc4C)n3)c2)s1 [Compound 8280],2610,,

# Continued, compound first:
SMILES,IC50 [2] [nM],IC50 [3] [nM],IC50 [4] [nM],IC50 [5] [nM],IC50 [6] [nM],IC50 [8] [nM],IC50 [1] [nM],antiviral activity against JCV [7],potency as an inhibitor of BCR-ABL relative to Gleevec [9] [×]
Cc1ccc(NC(=O)c2ccc(CN3CCN(C)CC3)cc2)cc1Nc1nccc(-c2cncc(C3=NN=C(C(=O)Nc4cn[nH]c4)C3)c2)n1 [Compound 118],,,,,,,,little antiviral activity,
Cc1ccc(NC(=O)c2ccc(CN3CCN(C)CC3)cc2)cc1Nc1nccc(-c2cncc(-c3ccn(C)n3)c2)n1 [Compound 832],2590,,90.9,661,46.7,,2480,,
Cc1ccc(NC(=O)c2ccc(CN3CCN(C)CC3)cc2)cc1Nc1nccc(-c2cncc(-c3nccs3)c2)n1 [Compound 8270],2790,,45.9,1030,203,,2520,,
Cc1csc(-c2cncc(-c3ccnc(Nc4cc(NC(=O)c5ccc(CN6CCN(C)CC6)cc5)ccc4C)n3)c2)n1 [Compound 8290],2480,,80.4,1440,375,,2580,,
"Cc1cn(-c2cc(NC(=O)c3ccc(C)c(Nc4nccc(-c5cccnc5)n4)c3)cc(C(F)(F)F)c2)cn1 [Tasigna, nilotinib]",,,,,,,,,≤ 20
